These results are taken from PubChem BioAssay AID1549 (Sanford-Burnham Center for Chemical Genomics, 2009).

For orientation: Kd means a measure of binding affinity in units of concentration.

Calls of active or inactive are those of the source. How the calls were made is not given here.

The test deals with Influenza A virus M2 proton channel (A/TW/4845/1999 H1N1). Description: NMR binding screen, influenza A virus M2 proton channel, Kd (AID 1549). The settings on record: M2 protein.
Turning to `C=CCCCCCCCCCCCC(O)CC(O)COC(C)=O` (stereo not drawn) (tested in a mixture with another compound), the Kd is > 4 mM (inactive).
In the case of `Cc1onc(-c2ccccc2)c1CN` it was > 4 mM (inactive); in that of `CCN1CCN(c2ncnc3c2nnn3C)CC1`, > 4 mM (inactive); in that of `CC(=O)c1csc(-c2cc(C)on2)n1`, > 4 mM (inactive).
For the compound `OCc1ccc(-n2ccnc2)cc1`, the Kd is > 4 mM (inactive).
In the case of `Cc1cc(C)cc(OC(=O)N2CCOCC2)c1` it was > 4 mM (inactive).
In the case of `CC(C)C(C)/C=C/C(C)[C@H]1CCC2C3=CCC4CC(=O)CC[C@]4(C)C3CC[C@@]21C` (stereo partly drawn) it was > 4 mM (inactive); in that of `COc1ccc2c(c1)OC[C@@H](Cc1ccc(OC)c(OC)c1)[C@H]2O`, > 4 mM (inactive).
In the case of `CCCn1cnc2sc(C(N)=O)c(C)c2c1=O` it was > 4 mM (inactive); in that of `O=C(Cc1cccs1)Nc1ccccn1`, > 4 mM (inactive); in that of `O=C(Nc1ccccc1Cl)c1cnccn1`, > 4 mM (inactive).
With `COC(=O)C1CSCC1=O` (stereo not drawn), the Kd was > 4 mM (inactive).
Regarding `O=C1Nc2ccccc2C12OCCO2`, the Kd was > 4 mM (inactive).
In the case of `Oc1ccc(C(=S)N2CCCCC2)cc1Cl` it was > 4 mM (inactive); in that of `O=C(Nc1ccon1)c1cccc(C(F)(F)F)c1`, > 4 mM (inactive).
On to `NC(=O)C1CCN(S(=O)(=O)c2ccccc2)CC1`, for which the Kd is > 4 mM (inactive).
In the case of `Cc1cc(NS(=O)(=O)Cc2ccccc2)no1` it was > 4 mM (inactive); in that of `O=C1C=CC(=O)N1c1ccc(N2CCOCC2)cc1`, > 4 mM (inactive).
Take `Cc1nnc2sc(-c3ccco3)nn12`: the Kd was > 4 mM (inactive).
In the case of `CC(=O)c1c(C)nc(C)nc1NC(=O)C(C)C` it was > 4 mM (inactive).
For the compound `CCNS(=O)(=O)c1ccc(OC)c(C)c1`, the Kd is > 4 mM (inactive).
`Cc1nc2ccc(F)cc2cc1C(=O)NCc1ccco1`: the Kd was > 4 mM (inactive).
With `Cc1ccccc1NC(=O)C1CCC(=O)N1` (stereo not drawn), the Kd is > 4 mM (inactive).
`NCc1ccc(-n2cccn2)cc1`: the Kd is > 4 mM (inactive).
In the case of `Cc1c(C(=O)Nc2ccncc2)oc2c1C(=O)CC(C)(C)C2` it was > 4 mM (inactive); in that of `Cn1c2ccccc2n2c(=S)[nH]nc12`, > 4 mM (inactive); in that of `O=C(O)c1ccc2occc2c1`, > 4 mM (inactive).
Consider `O=C(O)/C=C(\CC(=O)O)C(=O)O`, for which the Kd was > 4 mM (inactive).
With `CCOC(=O)c1ccc(F)c(F)c1`, the Kd was > 4 mM (inactive).
In the case of `Cc1nn(CC(=O)Nc2ccccn2)c(=O)c2ccccc12` it was > 4 mM (inactive).
In the case of `Cc1ccc(C)c(S(=O)(=O)NCc2cccnc2)c1` it was > 4 mM (inactive); in that of `Cn1c(=O)c2ccccc2n(Cc2ccccc2F)c1=O`, > 4 mM (inactive).
Take `COC(=O)c1cc(C)on1`: the Kd is > 4 mM (inactive).
In the case of `CC(=O)NC(NC(C)=O)c1ccccc1` it was > 4 mM (inactive); in that of `CC1=C(C(=O)Nc2ccccc2)SCCO1`, > 4 mM (inactive); in that of `CNC(=S)Nc1cccc(C(=O)O)c1`, > 4 mM (inactive).
For the compound `CC(C)=CCC1=C(O)c2ccccc2C(=O)C1=O`, the Kd is > 4 mM (inactive).
In the case of `NC(=O)c1ccc(N2CCCCC2)c(N)c1` it was > 4 mM (inactive); in that of `CCc1ccc(/C=N/n2cnnc2)cc1`, > 4 mM (inactive); in that of `CC1=C(C(N)=O)C(c2cccs2)C(C(N)=O)=C(C)N1`, > 4 mM (inactive).
In the case of `O=C(O)Cn1nnn(-c2ccccc2)c1=S` it was > 4 mM (inactive); in that of `NC(=O)c1ccc(NC(=O)C2CC2)cc1`, > 4 mM (inactive).
In the case of `Cc1nc(SCC(=O)c2c[nH]c3ccccc23)n[nH]1` it was > 4 mM (inactive); in that of `CNCc1ccccc1`, > 4 mM (inactive).
As for `CC(=O)NC(=S)Nc1ccc(C(C)=O)cc1`, the Kd is > 4 mM (inactive).
For `CN1CCN(c2ncnc3nc[nH]c23)CC1`, the Kd is > 4 mM (inactive).
In the case of `Cc1cc(C(=O)N2CCOCC2)c(C)o1` it was > 4 mM (inactive); in that of `Cn1c(=O)c2c([nH]c(=O)n2C)n(C)c1=O`, > 4 mM (inactive).
On to `O=C1NC(=S)N/C1=C\c1ccccc1`, for which the Kd is > 4 mM (inactive).
On to `CCOC(=O)c1c[nH]c2c(F)cccc2c1=O`, for which the Kd was > 4 mM (inactive).
In the case of `Nc1ccc(-c2csnn2)cc1` it was > 4 mM (inactive); in that of `OCc1csc(-c2cccs2)n1`, > 4 mM (inactive); in that of `NC(=O)CSc1nc2[nH]ncc2c(=O)[nH]1`, > 4 mM (inactive).
In the case of `Cc1cc(=O)[nH]c2ccccc12` it was > 4 mM (inactive); in that of `C=C(C)[C@H]1COc2cc3oc(=O)ccc3cc2O1`, > 4 mM (inactive).
In the case of `Cn1c(=O)c2c(ncn2C)n(C)c1=O` it was > 4 mM (inactive).
Turning to `COc1ccc(Cl)cc1NC(=O)c1ccco1`, the Kd was > 4 mM (inactive).
In the case of `Oc1ccc(C(=S)N2CCOCC2)cc1` it was > 4 mM (inactive).
In the case of `OC1(c2ccc(Cl)cc2)CCNCC1` it was > 4 mM (inactive).
In the case of `CN(C)c1ccc(N2C(=O)CCC2=O)cc1` it was > 4 mM (inactive); in that of `O=C(O)c1ccc(-c2cccs2)s1`, > 4 mM (inactive); in that of `CNC(=S)NCCN1CCOCC1`, > 4 mM (inactive).
For `CC1(C)C(=O)C=C[C@@]2(C)C1=C(O)C(=O)[C@]1(C)C2CC[C@@]2(C)[C@H](c3ccoc3)C[C@H]3O[C@]321` (stereo partly drawn), the Kd was > 4 mM (inactive).
For the compound `Cc1nnc(NCc2ccc3c(c2)OCO3)[nH]c1=O`, the Kd was > 4 mM (inactive).
In the case of `NCc1cccc2c1OCCO2` it was > 4 mM (inactive); in that of `CCN1CCc2c(sc(N)c2C(N)=O)C1`, > 4 mM (inactive).
As for `COc1c2occc2c(OC)c2c(=O)cc(C)oc12`, the Kd is > 4 mM (inactive).
In the case of `Cc1c(-c2ccc(F)cc2)[n+](=O)c2c(n1[O-])CCC2` it was > 4 mM (inactive); in that of `CS(=O)(=O)Nc1nnc(Cc2ccccc2)s1`, > 4 mM (inactive); in that of `O=C1COc2ccc(C(=O)c3ccccc3)cc2CN1`, > 4 mM (inactive).
In the case of `COc1cc(OC)cc(-c2nc(N)n[nH]2)c1` it was > 4 mM (inactive); in that of `COc1cc2c(cc1-c1coc3c4c(c(OC)cc3c1=O)OC(C)(C)C=C4)OCO2`, > 4 mM (inactive); in that of `CS(=O)(=O)Cc1ccccc1`, > 4 mM (inactive).
For the compound `Nc1nnc(C(F)(F)F)s1`, the Kd was > 4 mM (inactive).
With `CCN(CC)S(=O)(=O)c1ccc(F)cc1`, the Kd is > 4 mM (inactive).
In the case of `Cn1[nH]c2nc3[nH]n(C)c(=O)c3c(-c3ccccc3)c2c1=O` it was > 4 mM (inactive); in that of `NCc1csc2ccccc12`, > 4 mM (inactive).
In the case of `N#Cc1sc2nc3c(c(-c4cccnc4)c2c1N)CCC3` it was > 4 mM (inactive).
